Reference: PubChem BioAssay (NCI)
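Cultured in 96-well plates, cells were exposed to test compound for 48 hours across five concentrations. At the GI50, growth is halved. TGI: total growth inhibition.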

How the values were obtained:
Experiment in all cases: inhibition of tumour cell growth, NCI panel, 48 h
[1] = tested on: A549 NSCLC
[2] = tested on: BT-549 breast
[3] = tested on: HL-60(TB) leukemia
[4] = tested on: HOP-62 NSCLC
[5] = tested on: NCI/ADR-RES ovarian
[6] = tested on: OVCAR-3 ovarian
[7] = tested on: SF-268 CNS
[8] = tested on: SN12C renal
[9] = tested on: SR leukemia
[10] = tested on: UACC-62 melanoma

SMILES	GI50 [1] [µM]	TGI [1] [µM]	GI50 [2] [µM]	TGI [2] [µM]	GI50 [3] [µM]	TGI [3] [µM]	GI50 [4] [µM]	TGI [4] [µM]	GI50 [5] [µM]	TGI [5] [µM]	GI50 [6] [µM]	TGI [6] [µM]	GI50 [7] [µM]	TGI [7] [µM]	GI50 [8] [µM]	TGI [8] [µM]	GI50 [9] [µM]	TGI [9] [µM]	GI50 [10] [µM]	TGI [10] [µM]
CC(=O)NCCc1c2c(c3nccc4c3c1Nc1ccccc1-4)OCS2	1.29	11.3	6.13	19.7	2.97	14.3	3.6	34.1	4.83	> 38.2	1.48	5.67	1.56	11.4	0.741	4.79	0.0354	> 100	5.5	19.3
N#Cc1c(-c2ccccc2)nc(SCC2CO2)nc1N1CCOCC1 (centres undefined)	21	> 100	5.89	> 94.1	8.88	> 100	6.8	> 86.8	11.3	> 95.5	5.27	> 69.2	13.1	> 100	15.3	> 100	12.3	> 53.3	3.52	> 86.9
OC(c1cccc(-n2ccc(C(F)(F)F)n2)c1)c1cnccc1NC1CCCCCC1 (centres undefined)	1.81	3.56	1.63	3.06	2.06	4.26	1.95	3.84	1.81	3.35	1.76	3.22	1.69	3.25	1.69	3.2	1.79	6.49	1.74	3.14
FC(F)(F)Oc1cccc(-c2cnc3ccc(-c4ccncc4)nn23)c1	1.12	9.22	1.42	8.88	1.82	4.29	2.17	> 100	2.09	95.5	1.65	7.43	2.22	> 100	1.56	> 100	0.744	11.8	1.01	6.17
CC1(C)N=C(N)N=C(N)N1c1cccc(CCCCc2cccc(S(=O)(=O)F)c2)c1	0.751	> 100	0.973	> 43.1	1.95	47.8	3.04	> 47.9	> 79.2	> 100	4.29	27.1	0.887	20.8	0.571	> 100	0.355	33.2	0.281	18
COc1cc(C(=O)/C=C/c2c(C)n([O-])c3ccc(C)cc3[n+]2=O)cc(OC)c1OC	15.7	82.1	8.06	33.2	2.32	6.15	21.3	47.8	8.47	> 70.6	3.11	7.1	12.3	29.5		35.7	2.15	7.42	8.46	32.4
